# Source: patent US8394848B2, “Compounds that modulate intracellular calcium” (Calcimedica, Inc., priority 2008, dated 2013)
# Tested on: JR251 or RBL cells
# Test: Store-operated calcium entry, either JR251 or RBL cells, or both
# Type: cell-based
# Procedure, shortened: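 FLIPR calcium-entry readout in fluo-4-loaded cells held in Ca2+-free HBSS before calcium add-back. For RBL-2H3, store depletion used thapsigargin for 25 min after a 5 min compound pre-incubation, and IC50 was based on the 7 s Upslope. For Orai1/STIM1 stable cells, compound was pre-incubated 30 min and IC50 was based on Peak-Basal.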
row,Compound,IC50 [µM]
1,O=C(COc1ccccc1)Nc1scc(-c2ccc(Cl)cc2)c1C(=O)O [4-(4-chlorophenyl)-2-(2-phenoxyacetamido)thiophene-3-carboxylic acid],< 10
2,"Cc1cc(-c2csc(NC(=O)c3cc4ccccc4o3)c2C(=O)O)c(C)cc1F [2-(benzofuran-2-carboxamido)-4-(4-fluoro-2,5-dimethylphenyl)thiophene-3-carboxylic acid]",< 10
3,"O=C(Nc1scc(-c2ccc(C3CC3)c(F)c2F)c1C(=O)O)c1cc2ccccc2o1 [2-(benzofuran-2-carboxamido)-4-(4-cyclopropyl-2,3-difluorophenyl)thiophene-3-carboxylic acid]",< 10
4,"O=C(Nc1scc(-c2ccc(Cl)cc2)c1C(=O)O)c1cc(Cl)sc1Cl [4-(4-chlorophenyl)-2-(2,5-dichlorothiophene-3-carboxamido)thiophene-3-carboxylic acid]",< 10
5,O=C(Nc1scc(-c2ccc(Br)cc2)c1C(=O)O)c1cnccn1 [4-(4-bromophenyl)-2-(pyrazine-2-carboxamido)thiophene-3-carboxylic acid],< 10
6,O=C(CCc1ccco1)Nc1scc(-c2ccc(Br)cc2)c1C(=O)O [4-(4-bromophenyl)-2-(3-(furan-2-yl)propanamido)thiophene-3-carboxylic acid],< 10
7,"O=C(Nc1scc(-c2c(F)cc(F)cc2F)c1C(=O)O)c1cc2ccccc2o1 [2-(benzofuran-2-carboxamido)-4-(2,4,6-trifluorophenyl)thiophene-3-carboxylic acid]",< 10
8,COc1c(C(=O)Nc2scc(-c3ccc(Cl)cc3)c2C(=O)O)csc1Cl [2-(5-chloro-4-methoxythiophene-3-carboxamido)-4-(4-chlorophenyl)thiophene-3-carboxylic acid],< 10
9,"O=C(Nc1scc(-c2ccc(Cl)c(Cl)c2)c1C(=O)O)c1ccsc1 [4-(3,4-dichlorophenyl)-2-(thiophene-3-carboxamido)thiophene-3-carboxylic acid]",< 10
10,"Cc1cccc2nc(C(=O)Nc3scc(-c4ccc(Cl)cc4)c3C(=O)O)c(F)n12 [4-(4-chlorophenyl)-2-(3-fluoro-5-methylimidazo[1,2-a]pyridine-2-carboxamido)thiophene-3-carboxylic acid]",< 10
11,"O=C(Nc1scc(-c2ccc(Cl)cc2)c1C(=O)O)c1ccc2nnsc2c1 [2-(benzo[d][1,2,3]thiadiazole-6-carboxamido)-4-(4-chlorophenyl)thiophene-3-carboxylic acid]",< 10
12,N#Cc1cc(-c2csc(NC(=O)c3nc4ccccc4o3)c2C(=O)O)ccc1Cl [2-(benzo[d]oxazole-2-carboxamido)-4-(4-chloro-3-cyanophenyl)thiophene-3-carboxylic acid],< 10
13,O=C(Nc1scc(-c2cc3cccc(O)c3o2)c1C(=O)O)c1nc2cccc(F)c2o1 [2-(7-fluorobenzo[d]oxazole-2-carboxamido)-4-(7-hydroxybenzofuran-2-yl)thiophene-3-carboxylic acid],< 10
14,"Cc1ccc(-c2csc(NC(=O)c3nc4ccc(F)cc4o3)c2C(=O)O)c(F)c1F [4-(2,3-difluoro-4-methylphenyl)-2-(6-fluorobenzo[d]oxazole-2-carboxamido)thiophene-3-carboxylic acid]",< 10
15,COc1cccc2cc(-c3csc(NC(=O)c4nc5ccccc5o4)c3C(=O)O)oc12 [2-(benzo[d]oxazole-2-carboxamido)-4-(7-methoxybenzofuran-2-yl)thiophene-3-carboxylic acid],< 10
16,"Cc1ccc(-c2csc(NC(=O)c3cnc4ccccc4n3)c2C(=O)O)c(F)c1F [4-(2,3-difluoro-4-methylphenyl)-2-(quinoxaline-2-carboxamido)thiophene-3-carboxylic acid]",< 10
17,O=C(O)c1c(-c2ccc(Br)cc2)csc1NC(=O)C(F)Cc1c(F)cccc1Cl (stereo not shown) [4-(4-bromophenyl)-2-(3-(2-chloro-6-fluorophenyl)-2-fluoropropanamido)thiophene-3-carboxylic acid],< 10
18,O=C(Nc1scc(-c2ccc(Br)cc2)c1C(=O)O)OCc1ccccc1Cl [4-(4-bromophenyl)-2-((2-chlorobenzyloxy)carbonylamino)thiophene-3-carboxylic acid],< 10
19,"COc1cccc2cc(-c3csc(NC(=O)c4ccc5snnc5c4)c3C(=O)O)oc12 [2-(benzo[d][1,2,3]thiadiazole-5-carboxamido)-4-(7-methoxybenzofuran-2-yl)thiophene-3-carboxylic acid]",< 10
20,"O=C(Nc1scc(-c2cc(F)c(Cl)c(F)c2)c1C(=O)O)c1cc2ccccc2o1 [2-(benzofuran-2-carboxamido)-4-(4-chloro-3,5-difluorophenyl)thiophene-3-carboxylic acid]",< 10
21,O=C(O)c1c(-c2ccc(Br)cc2)csc1NC(=O)C(F)Cc1cc(F)ccc1Cl (stereo not shown) [4-(4-bromophenyl)-2-(3-(2-chloro-5-fluorophenyl)-2-fluoropropanamido)thiophene-3-carboxylic acid],< 10
22,"O=C(CCc1c(Cl)cccc1Cl)Nc1scc(-c2ccc(Cl)cc2)c1C(=O)O [4-(4-chlorophenyl)-2-(3-(2,6-dichlorophenyl)propanamido)thiophene-3-carboxylic acid]",< 10
23,O=C(CCc1cccc(Cl)c1)Nc1scc(-c2ccc(Cl)cc2)c1C(=O)O [4-(4-chlorophenyl)-2-(3-(3-chlorophenyl)propanamido)thiophene-3-carboxylic acid],< 10
24,"Cc1ccc(-c2csc(NC(=O)c3ccc4snnc4c3)c2C(=O)O)c(F)c1F [2-(benzo[d][1,2,3]thiadiazole-5-carboxamido)-4-(2,3-difluoro-4-methylphenyl)thiophene-3-carboxylic acid]",< 10
25,"O=C(Nc1scc(-c2ccc(Br)cc2)c1C(=O)O)c1cc2c(F)cccn2n1 [4-(4-bromophenyl)-2-(4-fluoropyrazolo[1,5-a]pyridine-2-carboxamido)thiophene-3-carboxylic acid]",< 10
26,O=C(Nc1scc(-c2ccc(Br)cc2)c1C(=O)O)c1nc2cc(Cl)ccc2o1 [4-(4-bromophenyl)-2-(5-chlorobenzo[d]oxazole-2-carboxamido)thiophene-3-carboxylic acid],< 10
27,"O=C(O)c1c(-c2ccc(Br)cc2)csc1NC(=O)C(F)Cc1cc(F)c(F)cc1Cl (stereo not shown) [4-(4-bromophenyl)-2-(3-(2-chloro-4,5-difluorophenyl)-2-fluoropropanamido)thiophene-3-carboxylic acid]",< 10
28,"Cc1ccc(-c2csc(NC(=O)c3nc4c(F)cccc4o3)c2C(=O)O)c(F)c1F [4-(2,3-difluoro-4-methylphenyl)-2-(4-fluorobenzo[d]oxazole-2-carboxamido)thiophene-3-carboxylic acid]",< 10
29,"O=C(Nc1scc(-c2ccc(Cl)c(Cl)c2)c1C(=O)O)c1nc2ccccc2o1 [2-(benzo[d]oxazole-2-carboxamido)-4-(3,4-dichlorophenyl)thiophene-3-carboxylic acid]",< 10
30,O=C(CCc1ccc(Cl)cc1)Nc1scc(-c2ccc(Cl)cc2)c1C(=O)O [4-(4-chlorophenyl)-2-(3-(4-chlorophenyl)propanamido)thiophene-3-carboxylic acid],< 10

# The next lines start with the values.
row,IC50 [µM],Compound
1,< 10,"Cc1nnsc1C(=O)Nc1scc(-c2ccc(Cl)cc2)c1C(=O)O [4-(4-chlorophenyl)-2-(4-methyl-1,2,3-thiadiazole-5-carboxamido)thiophene-3-carboxylic acid]"
2,< 10,O=C(Nc1scc(/C=C/c2ccc(Cl)cc2)c1C(=O)O)c1cc2ccccc2o1 [(E)-2-(benzofuran-2-carboxamido)-4-(4-chlorostyryl)thiophene-3-carboxylic acid]
3,< 10,"O=C1CC(C(=O)Nc2scc(-c3ccc(Cl)cc3)c2C(=O)O)Cc2ccccc21 (stereo not shown) [4-(4-chlorophenyl)-2-(4-oxo-1,2,3,4-tetrahydronaphthalene-2-carboxamido)thiophene-3-carboxylic acid]"
4,< 10,CC(CC(=O)Nc1scc(-c2ccc(Cl)cc2)c1C(=O)O)c1ccccc1 (stereo not shown) [4-(4-chlorophenyl)-2-(3-phenylbutanamido)thiophene-3-carboxylic acid]
5,< 10,"O=C(Nc1scc(-c2ccc(Cl)cc2)c1C(=O)O)c1nc2c(F)cc(F)cc2o1 [4-(4-chlorophenyl)-2-(4,6-difluorobenzo[d]oxazole-2-carboxamido)thiophene-3-carboxylic acid]"
6,< 10,O=C(Nc1scc(-c2ccc(Cl)cc2)c1C(=O)O)c1nc2c(O)cccc2o1 [4-(4-chlorophenyl)-2-(4-hydroxybenzo[d]oxazole-2-carboxamido)thiophene-3-carboxylic acid]
7,< 10,O=C(Nc1scc(-c2ccc(Cl)cc2)c1C(=O)O)c1ccc(-c2ccccc2)s1 [4-(4-chlorophenyl)-2-(5-phenylthiophene-2-carboxamido)thiophene-3-carboxylic acid]
8,< 10,O=C(Nc1scc(-c2ccc(Cl)cc2)c1C(=O)O)c1c[nH]nc1-c1ccccc1 [4-(4-chlorophenyl)-2-(3-phenyl-1H-pyrazole-4-carboxamido)thiophene-3-carboxylic acid]
9,< 10,O=C(Nc1scc(-c2ccc(Cl)cc2)c1C(=O)O)c1ccncc1 [4-(4-chlorophenyl)-2-(isonicotinamido)thiophene-3-carboxylic acid]
10,< 10,O=C(Nc1scc(-c2ccc(Cl)cc2)c1C(=O)O)c1nc2cc(F)ccc2o1 [4-(4-chlorophenyl)-2-(5-fluorobenzo[d]oxazole-2-carboxamido)thiophene-3-carboxylic acid]
11,< 10,O=C(Nc1scc(-c2ccc(Cl)cc2)c1C(=O)O)c1cc2ccccc2nn1 [4-(4-chlorophenyl)-2-(cinnoline-3-carboxamido)thiophene-3-carboxylic acid]
12,< 10,O=C(Nc1scc(-c2ccc(Cl)cc2)c1C(=O)O)/C(F)=C/c1ccccc1Cl [(Z)-4-(4-chlorophenyl)-2-(3-(2-chlorophenyl)-2-fluoroacrylamido)thiophene-3-carboxylic acid]
13,< 10,O=C(O)c1c(-c2ccc(Cl)cc2)csc1NC(=O)C1Cc2ccccc2N1 (stereo not shown) [4-(4-chlorophenyl)-2-(indoline-2-carboxamido)thiophene-3-carboxylic acid]
